Values after ≈ are worked out from the molar mass of the structure shown. Like-named read-outs stand apart in the source and are kept apart here. Blank lines part the entries; values can stand above or below the compound they belong to.
Key:
Drug solubility = assay type: physicochemical

solubility (Drug solubility; MFD solution, read-out: solubility in MFD solution): ~40 µg/mL (≈ 105 µM)
Compound: Cc1ccc(-c2cc(C(F)(F)F)nn2-c2ccc(S(N)(=O)=O)cc2)cc1 [Drug 1, 4-[5-(4-methylphenyl)-3-(trifluoromethyl)-1H-pyrazol-1-yl]benzenesulfonamide]

amount of polymer soluble at pH 6.5: less than 0.001 mg/mL
Compound: Ethylcellulose

solubility (Drug solubility; water, read-out: solubility in water): < 0.1 µg/mL
Compound: CCOC(=O)N1c2ccc(C(F)(F)F)cc2[C@@H](N(Cc2cc(C(F)(F)F)cc(C(F)(F)F)c2)C(=O)OC)C[C@H]1CC [Drug 2, [2R,4S]4-[(3,5-bis-trifluoromethyl-benzyl)-methoxycarbonyl-amino]-2-ethyl-6-trifluoromethyl-3,4-dihydro-2H-quinoline-1-carboxylic acid ethyl ester]
